Holding throughout (type): functional
One test relates to NCI-H460. Put plainly: Anticancer activity against human NCI-H460 cells assessed as growth of cells at 100 uM relative to untreated cells.
In a further test the test system is SF-268. Put plainly: Anticancer activity against human SF268 cells assessed as growth of cells at 100 uM relative to untreated cells.
The next test deals with MCF7. Put plainly: Anticancer activity against human MCF7 cells assessed as growth of cells at 100 uM relative to untreated cells.

On to `O=c1/c(=C/C=C\c2ccccc2)sc2ncnn12`, for which the Activity in the test on NCI-H460 amounted to 95%; in the test with SF-268, 128%; with MCF7, 138%.

For the origin of these results see ChEMBL document CHEMBL1147193, “New 5-substituted thiazolo[3,2-b][1,2,4]triazol-6-ones: synthesis and anticancer evaluation” (2007).
